Holding throughout (test): NCI-60 cell line screen, 48 h
For assay [1], the system named is NCI-H522 lung.
The test system of assay [2] is A498 renal.
Assay [3] deals with IGROV1 ovarian.
The subject of assay [4] is DU-145 prostate.
The test system of assay [5] is SF-268 CNS.
For assay [6], the system named is CCRF-CEM leukemia.
Assay [7] has as its system U251 CNS.
Assay [8] concerns EKVX NSCLC.
Assay [9] deals with OVCAR-3 ovarian.
Assay [10] deals with OVCAR-8 ovarian.

The structures appear in SMILES notation.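 Each compound was tested at five concentrations against cells in 96-well plates for 48 hours. The concentration for 50% growth inhibition is given as GI50. At the TGI there is no net growth.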 Some results are limits rather than exact numbers.

For the compound `NC(=S)N/N=C1\c2ccccc2-c2c(F)c(F)c(F)c(F)c21`, the GI50 in [1] was 0.321 µM; in [2] it was 16.5 µM; in [3], 5.81 µM; in [4] it was 5.39 µM; in [5], 5.26 µM; in assay [6], 1.09 µM. In addition, the GI50 was 3.16 µM in assay [7], 25.4 µM in [8], 2.06 µM in [9] and 1.84 µM in assay [10]. In addition, the TGI was determined as 1.21 µM in assay [1]; 55.7 µM in [2]; 13.8 µM in assay [3]; 17 µM in assay [4]; 12.5 µM in assay [5]; 3.95 µM in assay [6]. Moreover, the TGI was 10.2 µM in assay [7], over 100 µM in assay [8], 3.88 µM in assay [9] and 3.68 µM in assay [10].
Turning to `Cc1ccc(C=C2C(Cl)=C(Cl)C(Cl)=C2Cl)cc1`, the GI50 in [1] was 0.322 µM; in assay [2], 1.43 µM; in [3], 0.553 µM; in assay [4], 0.926 µM; in assay [5], 0.617 µM; in assay [6] it was 0.167 µM. The GI50 in assay [7] was 0.664 µM; in assay [8], 1.4 µM; in assay [9], 0.361 µM; in assay [10], 0.418 µM. The TGI in assay [1] was determined as 1.01 µM; in assay [2], 2.91 µM; in assay [3], 1.64 µM; in [4], 3.13 µM; in assay [5], 2.28 µM; in assay [6], 0.49 µM. Besides, the TGI was determined as 1.96 µM in assay [7], 4.28 µM in assay [8], 1.06 µM in assay [9] and 9.45 µM in [10].
With `COc1ccc(/C=C2\COc3ccc(O)c(O)c3C2=O)c(OC)c1OC`, the GI50 in assay [1] was 0.933 µM; in assay [2] it was 5.54 µM; in assay [3] it was 2.09 µM; in assay [4] it was 3.64 µM; in [5] it was 3.49 µM; in assay [7] it was 2.66 µM. The values for the GI50 in assay [8], in assay [9] and in assay [10] were 3.65 µM, 2.94 µM and 3.16 µM, respectively. The TGI worked out at 3.22 µM in assay [1]; 20.8 µM in assay [2]; 7.21 µM in [3]; 26 µM in [4]; 21.3 µM in [5]; 11.2 µM in assay [7]. Further, the TGI in [8] was 25.8 µM; in assay [9] it was 11.5 µM; in [10] it was over 100 µM.
In the case of `COc1ccc(CCN(CC(=O)N(CC(N)=O)C2CCC[C@@H]2OCc2ccccc2)C(=O)CN(C(=O)CN(CCc2ccc(Cl)cc2)C(=O)CN(C(=O)CN(C)Cc2ccccc2F)[C@H](C)C2CCCCC2)[C@H](C)C2CCCCC2)cc1OC` (stereo partly drawn), the GI50 in assay [1] is 1.52 µM; in [2], 1.84 µM; in assay [3], 1.68 µM; in [4] it was 2.42 µM; in assay [5] it was 1.29 µM; in assay [6], 1.66 µM. Also, the GI50 in assay [7] is 1.98 µM; in assay [8], 2.85 µM; in assay [9] it was 1.82 µM; in [10], 2.82 µM. The TGI in [1] is 32.2 µM; in assay [2] it was over 50 µM; in assay [3], over 50 µM; in assay [4] it was over 50 µM; in assay [5], over 50 µM; in [6], 15.1 µM. In addition, the TGI in assay [7] is 17.7 µM; in assay [8], over 50 µM; in [9], over 50 µM; in assay [10] it was over 50 µM.
With `CN(C)CC(=O)Nc1ccc2ncnc(Nc3ccc(Oc4cccc(C(F)(F)F)c4)c(Cl)c3)c2c1`, the GI50 was 1.8 µM in [1]; 1.62 µM in [2]; 1.17 µM in assay [3]; 2.13 µM in assay [4]; 1.97 µM in assay [5]; 2.52 µM in assay [6]. In addition, the GI50 was 1.79 µM in [7], 1.7 µM in assay [8], 1.61 µM in assay [9] and 3.24 µM in assay [10]. Further, the TGI turned out to be 5.37 µM in assay [1]; 4.92 µM in [2]; 3.03 µM in [3]; 6.78 µM in [4]; 5.44 µM in assay [5]; 10.4 µM in assay [6]. Also, the TGI in [7] was 3.99 µM; in assay [8] it was 8.05 µM; in assay [9], 3.51 µM; in assay [10] it was 13.1 µM.
With `Cn1cc(C2=C(c3cn(-c4ccccc4)c4ccccc34)C(=O)NC2=O)c2ccccc21`, the GI50 in assay [1] is 6.61 µM; in assay [2] it was over 16.2 µM; in [3] it was 11.7 µM; in assay [4], over 25 µM; in [5], 20.4 µM; in assay [6] it was 15.2 µM. Besides, the GI50 is 11.5 µM in assay [7], 14 µM in assay [9] and 19.5 µM in assay [10]. The TGI in [1], in assay [2], in assay [3], in assay [4], in assay [5] and in assay [6] was over 25 µM in each case. Besides, the TGI in assay [7], in [9] and in assay [10] was over 25 µM in each case.
On to `CC1(C)N=C(N)N=C(N)N1c1ccc(OCCCNC(=O)Nc2cccc(S(=O)(=O)F)c2)c(Cl)c1`, for which the GI50 in assay [2] is 21.9 µM; in assay [3], 0.448 µM; in assay [4] it was 2.87 µM; in assay [5], 0.596 µM; in assay [6] it was 3.62 µM; in assay [7], 0.777 µM. Moreover, the GI50 is 20.3 µM in [8], 8.12 µM in [9] and 7.02 µM in assay [10]. Besides, the TGI in assay [2], in assay [3], in assay [4], in assay [5], in assay [6] and in [7] was over 100 µM throughout. Also, the TGI in [8], in assay [9] and in assay [10] was over 100 µM in each case.
For `CCCCCCn1c(SC)nc(COC(=O)NC)c1COC(=O)NC`, the TGI was 23.5 µM in assay [1]; 30.8 µM in [2]; 30.5 µM in [3]; 30.1 µM in assay [4]; 30.6 µM in assay [5]; 27.1 µM in assay [8]. Further, the TGI was found to be 33.5 µM in assay [9] and 34.3 µM in assay [10].
With `O=c1cnnc(N/N=C/c2ccccc2O)[nH]1`, the GI50 in assay [1] is 1.26 µM; in assay [2], 1.81 µM; in assay [3], 3.2 µM; in assay [4], 6.58 µM; in assay [5], 3.45 µM; in [6], 0.396 µM. Further, the GI50 is 2.11 µM in assay [7], 0.324 µM in assay [9] and 1.81 µM in assay [10]. Further, the TGI in assay [1] is over 30.5 µM; in assay [2] it was 23.3 µM; in [3], 16.7 µM; in [4], over 100 µM; in assay [5] it was over 87.3 µM; in assay [6], over 39.9 µM. Further, the TGI in assay [7], in assay [9] and in [10] was over 100 µM each time.
On to `C/C(=N\OCC(O)CNCCSCc1ccccc1)c1ccccc1Cl` (stereo not drawn), for which the TGI in assay [1] is 52.8 µM; in [2], 31.9 µM; in [4], 52.2 µM; in [5], 34.6 µM; in assay [6], 72.9 µM; in assay [8], 40.6 µM. Besides, the TGI amounted to 34.6 µM in assay [9] and 32 µM in assay [10].
On to `CC(C)[C@@](O)(c1ccc2cc(OC(F)F)c(OC(F)F)cc2c1)c1cn[nH]n1`, for which the GI50 in [1] is 14.3 µM; in assay [3], 18.7 µM; in [4], 16.7 µM; in assay [5] it was 18.6 µM; in [6], 19.2 µM; in [7], 17.4 µM. For the same compound, the results for the GI50 in assay [8], in assay [9] and in assay [10] were 11 µM, 16.3 µM and 21.9 µM, respectively. The TGI came to 32.3 µM in assay [1]; 63.8 µM in assay [3]; 39.2 µM in [4]; 49.4 µM in [5]; 55.3 µM in assay [6]; 34.7 µM in assay [7]. Besides, the TGI in assay [8] was determined as 29.9 µM; in assay [9] it was 37.1 µM; in [10], 53.6 µM.
In the case of `O=C(NCCCl)Nc1cccnc1`, the TGI in assay [1] is 62.1 µM; in [2], 40.5 µM; in assay [3], 35.6 µM; in [4], 29.4 µM; in assay [6] it was over 100 µM; in assay [7], over 100 µM. Also, the TGI was determined as 38.3 µM in assay [8], 83.2 µM in assay [9] and 27.9 µM in assay [10].
`O=C(O)c1ccc(C(O)(c2ccccc2)c2ccccc2)cc1`: the TGI in [1], in assay [3], in assay [4], in assay [5], in assay [6] and in assay [7] was over 100 µM each time. The TGI in assay [8], in assay [9] and in [10] was over 100 µM in each case.
With `COc1ccc(C2CC(c3ccc(Nc4ccnc5cc(Cl)ccc45)cc3)=NN2C=O)cc1` (stereo not drawn), the GI50 is over 100 µM in [2]; 43.1 µM in assay [3]; 38 µM in assay [4]; over 100 µM in assay [5]; 2.71 µM in assay [6]; 15 µM in assay [7]. The values for the GI50 in assay [8], in assay [9] and in assay [10] were over 100 µM, 14.5 µM and 69.8 µM, respectively. Moreover, the TGI in [2], in [3], in [4], in assay [5], in assay [6] and in assay [7] was over 100 µM throughout. In addition, the TGI is over 100 µM in assay [8], 55.4 µM in [9] and over 100 µM in [10].
As to `Oc1ccc2c3c1OC1c4[nH]ncc4C[C@H]4[C@@H](C2)N(CC2CC2)CC[C@]314` (stereo partly drawn), the TGI in assay [1], in [3], in assay [4], in assay [5], in assay [6] and in assay [7] was over 100 µM in each case. Also, the TGI in assay [8], in assay [9] and in [10] was over 100 µM throughout.
For `O=C(O)c1cc(=O)cc(C(=O)O)o1`, the GI50 in assay [1], in assay [2], in assay [3], in [4], in [5] and in [6] was over 100 µM throughout. Also, the GI50 in [7], in assay [8] and in assay [9] was over 100 µM in each case. Besides, the TGI in assay [1], in assay [2], in assay [3], in [4], in assay [5] and in assay [6] was over 100 µM each time. Moreover, the TGI in assay [7], in [8] and in assay [9] was over 100 µM throughout.
On to `O=C(C=P(c1ccccc1)(c1ccccc1)c1ccccc1)CCl`, for which the GI50 in [1] was 0.396 µM; in [2], 1.09 µM; in assay [3], 1.97 µM; in assay [4], 1.13 µM; in [5] it was 1.75 µM; in assay [6], 0.826 µM. Besides, the GI50 in [7] was 1.58 µM; in assay [9], 1.33 µM; in assay [10] it was 0.918 µM. Moreover, the TGI in assay [1] turned out to be 1.64 µM; in [2], 2.46 µM; in [3], 5.75 µM; in assay [4], 2.38 µM; in assay [5] it was 4.01 µM; in assay [6] it was 7.41 µM. Also, the TGI in assay [7] was 3.7 µM; in assay [9] it was 2.68 µM; in [10], 3.8 µM.
On to `Cc1ccc2cccc(OC(=O)Nc3cccc(C(F)(F)F)c3)c2n1`, for which the GI50 in assay [2] is 2.59 µM; in assay [3] it was 4.29 µM; in [4] it was 3.95 µM; in assay [5] it was 4.26 µM; in assay [6] it was 2.86 µM; in [7] it was 3.07 µM. Further, the GI50 in [9] is 3.35 µM; in [10], 3.5 µM. The TGI worked out at 9.46 µM in assay [2]; 17.4 µM in [3]; 82.4 µM in [4]; 18.3 µM in assay [5]; 19.2 µM in [6]; 12.2 µM in [7]. Moreover, the values for the TGI in assay [9] and in assay [10] were 9.61 µM and 14.9 µM, respectively.

The values are drawn from PubChem BioAssay (NCI).
